Data taken from patent US20240261333A1, “NOVEL TARGETS FOR ENHANCING ANTI-TUMOR IMMUNITY” (THE BROAD INSTITUTE, INC., priority 2021, published 2024).

Tests used:
[1] = tested on: A375 (NY-ESO-1+, HLA-A2+) melanoma cells; assay: T cell cytotoxicity assay (CellTiter-Glo), A375 against ESO T cells; assay type: cell-based, human
Description: (§1) Expanded T cells were thawed and maintained in culture media for 8-10 h before incubation with cancer cells. Cancer cells were seeded in 96-well plates and allowed to attach for 3-4 h before T cells were added at the appropriate effector to target cell (E:T) ratio. Paired controls with no T cells added were included for each condition. After 18 h, cancer cells were washed twice with PBS to remove T cells, passaged, and cultured for 2 days. Primary patient-derived cell models were not passaged after T cell co-culture. Viability was measured using CellTiter-Glo (Promega G7571). For each E:T ratio, percent survival was calculated as viability of the cells incubated with T cells divided by viability of the paired control that was not incubated with T cells. For example, CD274-overexpressing melanoma cells that were co-cultured with ESO T cells were compared to CD274-overexpressing melanoma cells that were cultured without T cells in parallel. As an alternative cytotoxicity assay, A375 cells stably expressing Gaussia luciferase were co-cultured with ESO T cells. At each time point, 10% of cell culture media was used for the Gaussia luciferase assay (Targeting Systems GAR-2B) to directly measure cytotoxicity.
(§2) For glycosylation inhibition, cells were treated with 20 μg/mL Kifunensine (Cayman Chemical 10009437) or 2 mM Benzyl 2-acetamido-2-deoxy-alpha-D-galactopyranoside (BAG; Millipore Sigma B4894-100MG) for 48 h to inhibit N- and O-glycosylation respectively unless otherwise indicated. For MCL1 inhibition, cells were treated with 1-10 μM of S63845 (Selleck Chemicals S8383) or AZD5991 (Selleck Chemicals S8643) for 4 h before incubation with T cells. Both glycosylation and MCL1 inhibitors were maintained at indicated concentrations during co-culture with T cells.

[2] = target: Golgi Class I mannosidases IA, IB and IC; settings: cited from earlier work
[3] = target: T1, human endoplasmic reticulum a-1,2-mannosidase I (Homo sapiens, UniProt Q9UKM7); settings: human enzyme; cited from earlier work
T1 sequence (Q9UKM7 1-699): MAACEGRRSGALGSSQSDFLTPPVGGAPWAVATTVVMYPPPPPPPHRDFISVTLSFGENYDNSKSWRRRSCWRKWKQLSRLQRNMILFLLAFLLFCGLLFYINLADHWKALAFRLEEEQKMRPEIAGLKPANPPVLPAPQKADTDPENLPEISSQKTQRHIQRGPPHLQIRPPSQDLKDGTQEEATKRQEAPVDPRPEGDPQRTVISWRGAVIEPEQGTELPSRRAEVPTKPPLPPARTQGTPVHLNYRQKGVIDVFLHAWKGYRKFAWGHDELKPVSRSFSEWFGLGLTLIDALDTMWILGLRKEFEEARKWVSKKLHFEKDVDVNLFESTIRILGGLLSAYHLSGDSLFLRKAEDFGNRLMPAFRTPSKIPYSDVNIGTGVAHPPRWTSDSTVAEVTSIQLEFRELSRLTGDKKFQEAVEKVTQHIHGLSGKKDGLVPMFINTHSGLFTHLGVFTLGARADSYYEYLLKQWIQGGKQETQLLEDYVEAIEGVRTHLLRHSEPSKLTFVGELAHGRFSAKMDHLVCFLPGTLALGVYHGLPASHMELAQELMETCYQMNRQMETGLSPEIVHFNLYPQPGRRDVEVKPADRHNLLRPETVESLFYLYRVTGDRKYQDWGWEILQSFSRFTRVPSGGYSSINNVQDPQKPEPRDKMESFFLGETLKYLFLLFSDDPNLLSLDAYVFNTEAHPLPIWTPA

[4] = tested on: ESO T cells co-cultured with A375 cells; assay: IFNγ ELISA in culture media of the T cell cytotoxicity assay; assay type: cell-based, human; settings: B3GNT2-overexpressing A375 pretreated with inhibitor, E:T ratio of 3; kifunensine having a stronger effect
Description: Expanded T cells were thawed and maintained in culture media for 8-10 h before incubation with cancer cells. Cancer cells were seeded in 96-well plates and allowed to attach for 3-4 h before T cells were added at the appropriate effector to target cell (E:T) ratio. Paired controls with no T cells added were included for each condition. After 18 h, cancer cells were washed twice with PBS to remove T cells, passaged, and cultured for 2 days. Primary patient-derived cell models were not passaged after T cell co-culture. Viability was measured using CellTiter-Glo (Promega G7571). For each E:T ratio, percent survival was calculated as viability of the cells incubated with T cells divided by viability of the paired control that was not incubated with T cells. […]
To challenge cells with cytokines, cells were incubated with Interferon-γ (IFNγ; Cell Signaling Technology 80385S), FasL (AdipoGen AG-40B-0130-3010), TRAIL (R&D Systems 375-TL-010), or TNF-α (AdipoGen AG-40B-0019-3010) for 24 h. […] Cell viability was measured using CellTiter-Glo (Promega G7571) and protein was harvested for Western blots. […] IFNγ in the cell culture media of the T cell cytotoxic assay was quantified using an ELISA kit (Thermo Fisher Scientific KHC4021). […]

[5] = tested on: A375 cells overexpressing B3GNT2; assay: Intra- and extra-cellular poly-LacNAc by tomato lectin staining, flow cytometry; assay type: cell-based, human; settings: A375 overexpressing B3GNT2, pretreated with different concentrations of inhibitor
Description: as §2
Per condition, 5×10^5 cells were pelleted at 200×g for 5 min and washed once with PBS. Cell were fixed in 4% Formaldehyde in PBS at 4° C. for 10 mins. […] For each sample, 10,000 cells were analyzed on a CytoFLEX Flow Cytometer (Beckman Coulter) and quantified with FlowJo (FlowJo). For each experiment, median fluorescence values for 3 biological replicates were compared to determine statistical significance.

[6] = tested on: SW1417 (HER2+) colorectal adenocarcinoma cells; assay: T cell cytotoxicity assay, SW1417 against HER2 CAR T cells; assay type: cell-based, human; settings: SW1417 treated with small molecule inhibitor
Description: as §1, with “cytotoxicity. […]” for “cytotoxicity.”

O=C1N[C@@H]2[C@@H](O)[C@@H](O)[C@H](O)[C@@H](CO)N2C1=O [kifunensine]
Cell survival against T cell cytotoxicity, A375 ([1]; A375 treated with small molecule inhibitor): reduced survival
Cell survival against T cell cytotoxicity ([1]; B3GNT2-overexpressing A375 pretreated with inhibitor, E:T ratio of 3, kifunensine having a stronger effect): reduced A375 survival
Ki [2]: 23 nM
Ki [3]: 130 nM
T cell IFNγ secretion [4]: increased T cell IFNγ secretion
poly-LacNAc measured by tomato lectin staining [5]: reduced poly-LacNAc added by B3GNT2 in a dosage-dependent manner
Cell survival against T cell cytotoxicity, SW1417 [6]: reduced survival
